In the supplement of paper PMC10307832:

Experiments:
Assay in all cases: relative viability (nuclei count vs DMSO), 5 days (fraction); higher = more cells survive
Linifanib + Bortezomib = compound: Cc1ccc(F)c(NC(=O)Nc2ccc(-c3cccc4[nH]nc(N)c34)cc2)c1 [Linifanib] + CC(C)C[C@H](NC(=O)[C@H](Cc1ccccc1)NC(=O)c1cnccn1)B(O)O [Bortezomib] (partner 0.002 µM)
How it was run: (§1)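 A single step with final 0.05% Triton X-100, 1% formaldehyde and 1 ug/ml Hoechst fixed the cells and stained nuclei 5 days after treatment. Lung cancer cell lines in 1536-well plates had been treated by pin tool the day after seeding with one drug alone or a fixed anchor-drug dose plus five library-drug doses (not always all listed) in √10 steps, and nuclei were counted on 4× images. Relative viability is the ratio of nuclei in treated wells to nuclei in vehicle wells, taken as the median of duplicate plates.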

Linifanib + Foretinib = compound: Cc1ccc(F)c(NC(=O)Nc2ccc(-c3cccc4[nH]nc(N)c34)cc2)c1 [Linifanib] + COc1cc2c(Oc3ccc(NC(=O)C4(C(=O)Nc5ccc(F)cc5)CC4)cc3F)ccnc2cc1OCCCN1CCOCC1 [Foretinib] (partner 0.25 µM)
How it was run: as §1

Linifanib + OSI-027 = compound: Cc1ccc(F)c(NC(=O)Nc2ccc(-c3cccc4[nH]nc(N)c34)cc2)c1 [Linifanib] + COc1cccc2cc(-c3nc([C@H]4CC[C@H](C(=O)O)CC4)n4ncnc(N)c34)[nH]c12 [OSI-027] (partner 0.5 µM)
How it was run: as §1

Linifanib + Lapatinib = compound: Cc1ccc(F)c(NC(=O)Nc2ccc(-c3cccc4[nH]nc(N)c34)cc2)c1 [Linifanib] + CS(=O)(=O)CCNCc1ccc(-c2ccc3ncnc(Nc4ccc(OCc5cccc(F)c5)c(Cl)c4)c3c2)o1 [Lapatinib] (partner 2 µM)
How it was run: as §1

Linifanib + Pictilisib = compound: Cc1ccc(F)c(NC(=O)Nc2ccc(-c3cccc4[nH]nc(N)c34)cc2)c1 [Linifanib] + CS(=O)(=O)N1CCN(Cc2cc3nc(-c4cccc5[nH]ncc45)nc(N4CCOCC4)c3s2)CC1 [Pictilisib] (partner 1 µM)
How it was run: as §1

Linifanib + Dasatinib = compound: Cc1ccc(F)c(NC(=O)Nc2ccc(-c3cccc4[nH]nc(N)c34)cc2)c1 [Linifanib] + Cc1nc(Nc2ncc(C(=O)Nc3c(C)cccc3Cl)s2)cc(N2CCN(CCO)CC2)n1 [Dasatinib] (partner 0.075 µM)
How it was run: as §1

| Cell Line | relative viability (Linifanib + Bortezomib; first compound 0.03162 µM) | relative viability (Linifanib + Bortezomib; first compound 0.1 µM) | relative viability (Linifanib + Bortezomib; first compound 0.3162 µM) | relative viability (Linifanib + Foretinib; first compound 0.03162 µM) | relative viability (Linifanib + Foretinib; first compound 0.1 µM) | relative viability (Linifanib + Foretinib; first compound 0.3162 µM) | relative viability (Linifanib + OSI-027; first compound 0.03162 µM) | relative viability (Linifanib + OSI-027; first compound 0.1 µM) | relative viability (Linifanib + OSI-027; first compound 0.3162 µM) | relative viability (Linifanib + Lapatinib; first compound 0.03162 µM) | relative viability (Linifanib + Lapatinib; first compound 0.1 µM) | relative viability (Linifanib + Lapatinib; first compound 0.3162 µM) | relative viability (Linifanib + Pictilisib; first compound 0.03162 µM) | relative viability (Linifanib + Pictilisib; first compound 0.1 µM) | relative viability (Linifanib + Pictilisib; first compound 0.3162 µM) | relative viability (Linifanib + Dasatinib; first compound 0.03162 µM) | relative viability (Linifanib + Dasatinib; first compound 0.1 µM) | relative viability (Linifanib + Dasatinib; first compound 0.3162 µM) |
| --- | --- | --- | --- | --- | --- | --- | --- | --- | --- | --- | --- | --- | --- | --- | --- | --- | --- | --- |
| LC-2-ad | 0.976 | 1.23 | 0.98 | 0.905 | 0.911 | 0.904 | 0.722 | 0.951 | 0.855 | 1.06 | 1.04 | 0.883 | 0.379 | 0.57 | 0.437 | 0.618 | 0.871 | 0.489 |
| NCI-H460 | 1.03 | 1.18 | 0.925 | 0.963 | 1.01 | 0.95 | 0.682 | 0.768 | 0.611 | 1.1 | 1.11 | 0.697 | 0.397 | 0.448 | 0.317 | 0.577 | 0.6 | 0.508 |
| 201T | 1.05 | 1.09 | 1.08 | 0.968 | 1.22 | 1.1 | 0.671 | 0.86 | 0.745 | 1.07 | 1.03 | 1.05 | 0.69 | 0.704 | 0.668 | 0.571 | 0.623 | 0.559 |
| HCC-78 | 0.455 | 0.429 | 0.472 | 0.543 | 0.501 | 0.542 | 0.391 | 0.396 | 0.344 | 1.23 | 0.976 | 0.674 | 0.24 | 0.21 | 0.237 | 0.441 | 0.539 | 0.37 |
| NCI-H596 | 0.899 | 1.06 | 1.08 | 0.981 | 0.783 | 0.907 | 0.625 | 0.879 | 0.71 | 1.05 | 1.08 | 1.01 | 0.378 | 0.375 | 0.446 | 0.58 | 0.612 | 0.671 |
| HCC-366 | 1 | 1.1 | 1.02 | 1.01 | 0.981 | 0.826 | 0.898 | 1.29 | 0.795 | 1.02 | 1.12 | 0.895 | 0.148 | 0.21 | 0.214 | 0.554 | 0.648 | 0.582 |
| NCI-H520 | 0.773 | 1.07 | 0.497 | 0.741 | 1.01 | 0.708 | 0.271 | 0.313 | 0.3 | 1 | 1.03 | 0.895 | 0.29 | 0.304 | 0.315 | 0.19 | 0.206 | 0.208 |
| RERF-LC-KJ | 1.25 | 1.22 | 0.991 | 0.796 | 0.932 | 0.814 | 0.572 | 0.654 | 0.616 | 0.885 | 0.891 | 0.868 | 0.564 | 0.6 | 0.484 | 0.836 | 0.983 | 0.937 |
| NCI-H1915 | 1.01 | 0.937 | 0.98 | 1.08 | 1.15 | 1.04 | 0.668 | 0.688 | 0.616 | 1.08 | 0.925 | 0.89 | 1.04 | 0.923 | 0.892 | 0.301 | 0.359 | 0.36 |
| NCI-H3122 | 1.01 | 1 | 0.989 | 0.946 | 0.965 | 0.932 | 0.947 | 0.989 | 0.995 | 1.11 | 1.11 | 0.922 | 0.598 | 0.648 | 0.577 | 0.908 | 0.908 | 0.877 |
| NCI-H661 | 0.88 | 0.915 | 0.645 | 1.07 | 0.978 | 0.973 | 0.726 | 0.714 | 0.647 | 0.483 | 0.449 | 0.42 | 0.424 | 0.487 | 0.38 | 1.07 | 0.983 | 0.871 |
| CAL-12T | 1.06 | 1.01 | 0.8 | 1.14 | 1.21 | 1.14 | 0.761 | 0.736 | 0.73 | 0.75 | 0.819 | 0.534 | 0.439 | 0.478 | 0.33 | 0.457 | 0.508 | 0.343 |
| NCI-H647 | 1.25 | 1.14 | 1.07 | 1.03 | 1.23 | 1.12 | 0.703 | 0.795 | 0.587 | 1.22 | 1.29 | 1.01 | 0.313 | 0.512 | 0.417 | 0.194 | 0.231 | 0.183 |
| HOP-62 | 0.617 | 0.969 | 0.728 | 1.14 | 1.12 | 1.02 | 0.982 | 0.874 | 0.767 | 1.02 | 0.739 | 1.02 | 0.709 | 0.693 | 0.88 | 0.672 | 0.702 | 0.701 |
| NCI-H2228 | 0.815 | 1.32 | 0.959 | 1.08 | 0.889 | 0.81 | 0.647 | 0.747 | 0.663 | 0.998 | 1.3 | 0.922 | 0.415 | 0.64 | 0.386 | 0.541 | 0.556 | 0.538 |
| COR-L23 | 1.12 | 1.17 | 0.831 | 0.952 | 0.951 | 0.959 | 0.875 | 0.786 | 0.722 | 1.09 | 0.905 | 0.921 | 0.754 | 0.717 | 0.686 | 0.532 | 0.647 | 0.418 |
| LXF-289 | 1.04 | 1.01 | 0.952 | 1.09 | 0.975 | 0.936 | 0.905 | 0.829 | 0.774 | 0.914 | 0.936 | 0.831 | 0.849 | 0.874 | 0.784 | 0.29 | 0.288 | 0.236 |
